Measured values published in patent US12478602B2, “Method for treating a disorder” (priority 2023, dated 2025).
Read-outs that look alike come from different tables or passages of the source.

Assays:
[1] = Pharmacokinetic experiment in healthy adult males; assay type: in vivo, human; conditions: for AUC(0-t): read-out: average AUClast of L-serine without baseline correction
Method: 24 hours before the administration with AST-001 (main component: L-serine), blood was collected to measure the concentration of L-serine. 60 g of an AST-001 powder is a white homogeneous powder without having foreign substances, divided and repackaged into an HDPE bottle or a bottle made of the same material, and the composition of this drug is such that 1,000 mg of the main component L-serine is comprised per 1,000 mg dose. [table]

[2] = Pharmacokinetic experiment in Beagle dog; assay type: in vivo; conditions: for bioavailability / half-life: Beagle, dog, plasma; for bioavailability: po, read-out: bioavailability by the oral administration; for half-life: read-out: drug loss half-life (t1/2) (converted); for AUCinf: fasting
Method: 4 g or 8 g of L-serine was orally or intravenously administered to Beagle dogs (1.8 to 2.6 years old, 8.6 to 11.6 kg, n=20). Blood collection was divided into blood collection before L-serine administration (basal blood collection) and blood collection after administration (main blood collection). During the experiment, the Beagle dogs were maintained in a fasting state, and L-serine concentration in the plasma was analyzed by LC-MS/MS.

N[C@@H](CO)C(=O)O [AST-001, L-serine] showed a CLss/F ([1]; 15 g twice a day for 7 days, N = 7, mean ± SD) of 21.97 ± 5.99 L/h, an AUC ([1]; male, human, blood, oral, 15 g, 15 g twice a day for 1 week, steady state, read-out: average AUCtau of L-serine without baseline correction) of roughly 883 µg·h/mL and an AUC ([1]; male, human, blood, oral, 15 g, 15 g twice a day for 7 days, N = 7, mean ± SD, read-out: AUCtau, ss) of 729 ± 202 µg·h/mL. It also gave a Cmax ([1]; male, human, blood, oral, 15 g twice a day for 7 days, N = 7, mean ± SD) of 212 ± 56.2 µg/mL, a Vd/F ([1]; male, human, blood, oral, 15 g twice a day for 7 days, N = 7, mean ± SD, read-out: Vz/F) of 348 ± 220 L and a half-life ([1]; male, human, blood, oral, 15 g twice a day for 7 days, N = 7, mean ± SD, read-out: t1/2 (converted)) of 11 ± 5.17 h. The Tmax ([1]; male, human, blood, oral, 15 g twice a day for 7 days, N = 7, median value) was 1 h, the half-life ([1]; male, human, blood, oral, read-out: average half-life of extrinsically administered L-serine) was 6.5 to 14 h and the AUC(0-t) ([1]; male, human, blood, oral, single administration 10 g) was 613 µg·h/mL. It also gave an AUC(0-t) ([1]; male, human, blood, oral, single administration 20 g) of 1130 µg·h/mL, an AUC(0-t) ([1]; male, human, blood, oral, single administration 30 g) of 1530 µg·h/mL and a half-life ([1]; male, human, blood, po, 15 g orally twice a day for 7 days, steady state, read-out: average half-life (converted)) of roughly 11 h. The “Cmax, AUClast, and AUCinf with increasing dosage” value ([1]; single oral 10 g, 15 g, 20 g or 30 g) was “linearly increased”, the average accumulation index ([1]; steady state vs single administration with 15 g) was “about 1.7 times” and the bioavailability ([2]; 4 g per individual) was 106%. The bioavailability ([2]; 8 g per individual) was 84.2%, the half-life ([2]; oral 4 g) was 3.8 ± 1.4 h and the half-life ([2]; oral 8 g) was 4.7 ± 1.8 h. It also gave an AUCinf ([2]; oral 4 g) of 628 ± 108 µg·h/mL and an AUCinf ([2]; oral 8 g) of 1330 µg·h/mL.
